Measured values taken from patent US7625841B2, “Substituted thiene-3-ylsulphonylamino(thio)carbonyltriazolin(ethi)ones” (Bayer CropScience AG, priority 2001, dated 2009).

Key:
Xanthium [1] = assay: Post-emergence test/greenhouse; assay type: in vivo; settings: greenhouse, application rate 15 gai/ha, rated after three weeks, 0%=no effect, 100%=total destruction
Procedure, shortened: (§1)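 Greenhouse foliar application to 5-15 cm plants at the chosen rate per hectare, 1000 l water/ha. Effect was rated as % damage after three weeks, with untreated plants as 0%.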

Lolium [2] = assay: Post-emergence test/greenhouse; assay type: in vivo; settings: greenhouse, application rate 15 gai/ha, rated after three weeks, 0%=no effect, 100%=total destruction
Procedure, shortened: as §1

Bromus [3] = assay: Post-emergence test/greenhouse; assay type: in vivo; settings: greenhouse, application rate 15 gai/ha, rated after three weeks, 0%=no effect, 100%=total destruction
Procedure, shortened: as §1

Setaria [4] = assay: Post-emergence test/greenhouse; assay type: in vivo; settings: greenhouse, application rate 15 gai/ha, rated after three weeks, 0%=no effect, 100%=total destruction
Procedure, shortened: as §1

maize [5] = assay: Post-emergence test/greenhouse; assay type: in vivo; settings: greenhouse, application rate 15 gai/ha, rated after three weeks, 0%=no effect, 100%=total destruction
Procedure, shortened: as §1

Polygonum [6] = assay: Post-emergence test/greenhouse; assay type: in vivo; settings: greenhouse, application rate 15 gai/ha, rated after three weeks, 0%=no effect, 100%=total destruction
Procedure, shortened: as §1

Alopecurus [7] = assay: Post-emergence test/greenhouse; assay type: in vivo; settings: greenhouse, application rate 15 gai/ha, rated after three weeks, 0%=no effect, 100%=total destruction
Procedure, shortened: as §1

Avena fatua [8] = assay: Post-emergence test/greenhouse; assay type: in vivo; settings: greenhouse, application rate 15 gai/ha, rated after three weeks, 0%=no effect, 100%=total destruction
Procedure, shortened: as §1

Datura = assay: Post-emergence test/greenhouse; assay type: in vivo; settings: greenhouse, application rate 15 gai/ha, rated after three weeks, 0%=no effect, 100%=total destruction
Procedure, shortened: as §1

wheat [9] = assay: Post-emergence test/greenhouse; assay type: in vivo; settings: greenhouse, application rate 15 gai/ha, rated after three weeks, 0%=no effect, 100%=total destruction
Procedure, shortened: as §1

Digitaria [10] = assay: Post-emergence test/greenhouse; assay type: in vivo; settings: greenhouse, application rate 15 gai/ha, rated after three weeks, 0%=no effect, 100%=total destruction
Procedure, shortened: as §1

Xanthium [11] = assay: Pre-emergence test/greenhouse; assay type: in vivo; settings: Xanthium, 504 h, greenhouse, application rate 15 gai/ha, rated after three weeks, 0%=no effect, 100%=total destruction, read-out: degree of damage to the plants, Xanthium
Procedure, shortened: (§2)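 Greenhouse pre-emergence format: sowing in normal soil, then spraying of an acetone-based emulsified preparation onto the soil one day later (1000 L/ha water). Effect assessed visually after three weeks as % damage.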

Lolium [12] = assay: Pre-emergence test/greenhouse; assay type: in vivo; settings: greenhouse, application rate 15 gai/ha, rated after three weeks, 0%=no effect, 100%=total destruction; for pest or weed control at 15 g/ha: Lolium, 504 h, read-out: degree of damage to the plants, Lolium
Procedure, shortened: as §2

Bromus [13] = assay: Pre-emergence test/greenhouse; assay type: in vivo; settings: greenhouse, application rate 15 gai/ha, rated after three weeks, 0%=no effect, 100%=total destruction
Procedure, shortened: as §2

Setaria [14] = assay: Pre-emergence test/greenhouse; assay type: in vivo; settings: greenhouse, application rate 15 gai/ha, rated after three weeks, 0%=no effect, 100%=total destruction
Procedure, shortened: as §2

maize [15] = assay: Pre-emergence test/greenhouse; assay type: in vivo; settings: Zea mays, 504 h, greenhouse, application rate 15 gai/ha, rated after three weeks, 0%=no effect, 100%=total destruction, read-out: degree of damage to the plants, maize
Procedure, shortened: as §2

Polygonum [16] = assay: Pre-emergence test/greenhouse; assay type: in vivo; settings: greenhouse, application rate 15 gai/ha, rated after three weeks, 0%=no effect, 100%=total destruction
Procedure, shortened: as §2

Solanum = assay: Pre-emergence test/greenhouse; assay type: in vivo; settings: greenhouse, application rate 15 gai/ha, rated after three weeks, 0%=no effect, 100%=total destruction
Procedure, shortened: as §2

soybeans = assay: Pre-emergence test/greenhouse; assay type: in vivo; settings: greenhouse, application rate 15 gai/ha, rated after three weeks, 0%=no effect, 100%=total destruction
Procedure, shortened: as §2

Chenopodium [17] = assay: Pre-emergence test/greenhouse; assay type: in vivo; settings: greenhouse, application rate 15 gai/ha, rated after three weeks, 0%=no effect, 100%=total destruction
Procedure, shortened: as §2

Alopecurus [18] = assay: Pre-emergence test/greenhouse; assay type: in vivo; settings: greenhouse, application rate 15 gai/ha, rated after three weeks, 0%=no effect, 100%=total destruction
Procedure, shortened: as §2

Galium = assay: Pre-emergence test/greenhouse; assay type: in vivo; settings: greenhouse, application rate 15 gai/ha, rated after three weeks, 0%=no effect, 100%=total destruction
Procedure, shortened: as §2

Amaranthus = assay: Pre-emergence test/greenhouse; assay type: in vivo; settings: greenhouse, application rate 15 gai/ha, rated after three weeks, 0%=no effect, 100%=total destruction
Procedure, shortened: as §2

Avena fatua [19] = assay: Pre-emergence test/greenhouse; assay type: in vivo; settings: greenhouse, application rate 15 gai/ha, rated after three weeks, 0%=no effect, 100%=total destruction
Procedure, shortened: as §2

Stellaria = assay: Pre-emergence test/greenhouse; assay type: in vivo; settings: greenhouse, application rate 15 gai/ha, rated after three weeks, 0%=no effect, 100%=total destruction; for pest or weed control at 15 g/ha: Stellaria, 504 h, read-out: degree of damage to the plants, Stellaria
Procedure, shortened: as §2

wheat [20] = assay: Pre-emergence test/greenhouse; assay type: in vivo; settings: Triticum aestivum, 504 h, greenhouse, application rate 15 gai/ha, rated after three weeks, 0%=no effect, 100%=total destruction, read-out: degree of damage to the plants, wheat
Procedure, shortened: as §2

Matricaria = assay: Pre-emergence test/greenhouse; assay type: in vivo; settings: Matricaria, 504 h, greenhouse, application rate 15 gai/ha, rated after three weeks, 0%=no effect, 100%=total destruction, read-out: degree of damage to the plants, Matricaria
Procedure, shortened: as §2

Digitaria [21] = assay: Pre-emergence test/greenhouse; assay type: in vivo; settings: greenhouse, application rate 15 gai/ha, rated after three weeks, 0%=no effect, 100%=total destruction
Procedure, shortened: as §2

weeds [22] = assay: Pre-emergence test, summary for weeds; assay type: in vivo
Procedure, shortened: as §2

Echinochloa = assay: Post-emergence test/greenhouse; assay type: in vivo; settings: greenhouse, application rate 15 gai/ha, rated after three weeks, 0%=no effect, 100%=total destruction
Procedure, shortened: as §1

Viola = assay: Post-emergence test/greenhouse; assay type: in vivo; settings: greenhouse, application rate 15 gai/ha, rated after three weeks, 0%=no effect, 100%=total destruction
Procedure, shortened: as §1

[23] = tested on: crop plants, such as, for example, maize, soyabean and wheat; assay: Pre-emergence test, summary for crop plants; assay type: in vivo
Procedure, shortened: as §2

[24] = tested on: crop plants such as, for example, maize, oilseed rape and wheat; assay: Post-emergence test, summary for crop plants; assay type: in vivo
Procedure, shortened: as §1

weeds [25] = assay: Post-emergence test, summary for weeds; assay type: in vivo
Procedure, shortened: as §1

rape = assay: Post-emergence test/greenhouse; assay type: in vivo; settings: greenhouse, application rate 15 gai/ha, rated after three weeks, 0%=no effect, 100%=total destruction
Procedure, shortened: as §1

Chenopodium [26] = assay: Post-emergence test/greenhouse; assay type: in vivo; settings: greenhouse, application rate 15 gai/ha, rated after three weeks, 0%=no effect, 100%=total destruction
Procedure, shortened: as §1

SMILES | degree of damage to the plants, Xanthium (Xanthium [1]) | degree of damage to the plants, Lolium (Lolium [2]) | degree of damage to the plants, maize (maize [5]) | degree of damage to the plants, Polygonum (Polygonum [6]) | degree of damage to the plants, Alopecurus (Alopecurus [7]) | degree of damage to the plants, Datura (Datura) | degree of damage to the plants, wheat (wheat [9]) | pest or weed control at 15 g/ha (Xanthium [11]) | pest or weed control at 15 g/ha (Lolium [12]) | degree of damage to the plants, Bromus (Bromus [13]) | degree of damage to the plants, Setaria (Setaria [14]) | plant injury at 15 g/ha (maize [15]) | degree of damage to the plants, Solanum (Solanum) | degree of damage to the plants, Galium (Galium) | degree of damage to the plants, Amaranthus (Amaranthus) | degree of damage to the plants, Avena fatua (Avena fatua [19]) | pest or weed control at 15 g/ha (Stellaria) | plant injury at 15 g/ha (wheat [20]) | pest or weed control at 15 g/ha (Matricaria) | activity against weeds compared with the known compounds (A) to (G) (weeds [22]) | also measured
CCCOc1nn(C(=O)NS(=O)(=O)c2c(C(=O)OC)csc2C)c(=O)n1C1CC1 [(B), methyl 4-[[[(4-cyclopropyl-4,5-dihydro-5-oxo-3-n-propoxy-1H-1,2,4-triazol-1-yl)-carbonyl]amino]sulfonyl]-5-methyl-3-thiophenecarboxylate, reference compound] | 50% | 60% | 90% | 70% | 0% | 80% | 30% | 0% | 20% | 40% | 40% | 0% | 80% | 20% | 80% | 10% | 60% | 0% | 40% | – | degree of damage to the plants, Bromus (Bromus [3]): 50%; degree of damage to the plants, Setaria (Setaria [4]): 60%; degree of damage to the plants, Avena fatua (Avena fatua [8]): 50%; degree of damage to the plants, Digitaria (Digitaria [10]): 20%; degree of damage to the plants, Polygonum (Polygonum [16]): 50%; degree of damage to the plants, soybeans (soybeans): 0%; degree of damage to the plants, Chenopodium (Chenopodium [17]): 40%; degree of damage to the plants, Alopecurus (Alopecurus [18]): 20%; degree of damage to the plants, Digitaria (Digitaria [21]): 0%
CCOC(=O)c1csc(C)c1S(=O)(=O)NC(=O)n1nc(OC)n(C)c1=O [Example 1, ethyl 4-[[[(3-methoxy-4-methyl-5-oxo-1H-1,2,4-triazol-1-yl)carbonyl]amino]sulfonyl]-5-methyl-3-thiophenecarboxylate] | 95% | 90% | 0% | 95% | – | 95% | 0% | 95% | 90% | 95% | – | 0% | 100% | – | 100% | – | 100% | 0% | 100% | considerably stronger activity against weeds | degree of damage to the plants, Echinochloa (Echinochloa): 90%; degree of damage to the plants, Viola (Viola): 95%; tolerance by crop plants [23]: tolerated well by crop plants; compatibility with crop plants compared with the known compounds (A) and (B) [24]: substantially better compatibility with crop plants; activity against weeds compared with the known compounds (A) and (B) (weeds [25]): considerably stronger activity against weeds; melting point: 176 °C
CCCc1nn(C(=O)NS(=O)(=O)c2c(C(=O)OC)csc2C)c(=O)n1OC [Example 42] | – | 90% | – | – | 90% | – | – | – | – | 95% | 95% | – | – | 100% | 100% | 90% | – | – | – | considerably stronger activity against weeds | degree of damage to the plants, Echinochloa (Echinochloa): 90%; degree of damage to the plants, rape (rape): 0%; degree of damage to the plants, Chenopodium (Chenopodium [26]): 95%; tolerance by crop plants [23]: tolerated well by crop plants; compatibility with crop plants compared with the known compounds (A) and (B) [24]: substantially better compatibility with crop plants; degree of damage to the plants, Lolium (Lolium [12]): 95%; degree of damage to the plants, Stellaria (Stellaria): 100%; activity against weeds compared with the known compounds (A) and (B) (weeds [25]): considerably stronger activity against weeds
